In this assay the target is T1, AsCas12a (Acidaminococcus sp. BV3L6, UniProt U2UMQ6).
T1 construct: gene cas12a; purified wild-type protein, no crRNA mentioned in assay
The assay is described as follows: radiometric TLC ATPase assay ([…] release). The note with it: 200 µM cold ATP, 200 pM [γ-32P]ATP; 12 mM MgCl2, pH 7.5, 37 °C, 1 h; no DNA; labelled compound. The class given is biochemical.

Data on one compound can be found in publication doi:10.1101/2025.06.05.658205v3, “AsCas12a Exhibits Intrinsic, DNA-Independent ATPase Activity” (biorxiv, 2025).

T1 sequence (U2UMQ6 whole entry, looked up): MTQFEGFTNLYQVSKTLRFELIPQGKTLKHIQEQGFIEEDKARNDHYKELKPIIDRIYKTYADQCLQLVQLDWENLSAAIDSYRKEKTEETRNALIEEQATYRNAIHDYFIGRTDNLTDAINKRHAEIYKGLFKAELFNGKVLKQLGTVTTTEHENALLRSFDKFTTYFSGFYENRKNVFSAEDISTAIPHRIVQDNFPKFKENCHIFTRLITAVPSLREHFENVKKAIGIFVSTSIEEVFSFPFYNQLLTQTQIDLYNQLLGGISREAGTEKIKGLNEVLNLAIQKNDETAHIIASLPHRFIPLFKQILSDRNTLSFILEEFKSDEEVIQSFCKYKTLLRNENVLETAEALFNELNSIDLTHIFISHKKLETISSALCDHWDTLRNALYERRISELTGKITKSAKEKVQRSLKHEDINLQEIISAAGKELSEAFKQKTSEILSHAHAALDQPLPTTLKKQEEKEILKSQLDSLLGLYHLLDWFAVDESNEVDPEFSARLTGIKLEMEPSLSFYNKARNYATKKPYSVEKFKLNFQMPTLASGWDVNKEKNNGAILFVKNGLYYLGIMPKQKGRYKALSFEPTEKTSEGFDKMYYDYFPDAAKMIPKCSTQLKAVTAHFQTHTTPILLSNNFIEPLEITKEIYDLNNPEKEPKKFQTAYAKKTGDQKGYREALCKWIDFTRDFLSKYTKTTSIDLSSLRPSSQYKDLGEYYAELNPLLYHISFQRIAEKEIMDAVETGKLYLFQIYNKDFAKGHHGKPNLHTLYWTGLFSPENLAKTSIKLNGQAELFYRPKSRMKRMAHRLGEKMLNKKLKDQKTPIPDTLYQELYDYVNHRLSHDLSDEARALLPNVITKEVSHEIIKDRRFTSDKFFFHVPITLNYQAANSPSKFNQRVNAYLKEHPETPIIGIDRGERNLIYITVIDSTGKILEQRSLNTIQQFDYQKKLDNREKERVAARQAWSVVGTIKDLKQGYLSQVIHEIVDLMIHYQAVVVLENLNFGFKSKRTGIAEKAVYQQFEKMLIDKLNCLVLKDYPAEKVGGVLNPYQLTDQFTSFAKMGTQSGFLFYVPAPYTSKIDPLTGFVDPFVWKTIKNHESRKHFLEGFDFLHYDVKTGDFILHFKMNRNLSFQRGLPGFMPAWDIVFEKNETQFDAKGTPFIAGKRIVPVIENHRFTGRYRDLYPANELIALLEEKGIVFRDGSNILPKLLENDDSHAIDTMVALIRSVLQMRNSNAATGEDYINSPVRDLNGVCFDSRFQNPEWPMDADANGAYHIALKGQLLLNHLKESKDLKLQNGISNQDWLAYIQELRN

Regarding `Nc1ncnc2c1ncn2[C@@H]1O[C@H](COP(=O)(O)OP(=O)(O)OP(=O)(O)O)[C@@H](O)[C@H]1O` [ATP], the “radiometric TLC ATPase assay (32Pi release)” value is “AsCas12a catalyzed ATP hydrolysis in a concentration and time-dependent manner”.
